Data as given in patent US20070048372A1, “Method for treating non-inflammatory osteoarthritic pain” (SRZ Properties, Inc., priority 2005, published 2007).
Entries after “also recorded” stand apart in the source; their conditions may differ.

Assays:
[1] = system: rat formalin paw test (late phase); experiment: Rat formalin paw test (late phase): number of flinches and licking time; type: in vivo, rat (Rj: Wistar (Han))
Experimental: Rats were given an intraplantar injection of 5% formalin (50 μl) into the posterior left paw. This treatment induces a recognizable flinching and licking response of the affected paw in control animals. The number of flinches was counted for 15 minutes, beginning 20 minutes after injection of formalin. The time spent licking the affected paw was also recorded.
Male Rj: Wistar (Han) rats, 10 per group, weighing 100-130 g at the beginning of the experiments were studied per group. The test was performed blind.
Lacosamide (20 mg/kg), gabapentin (50 and 100 mg/kg), combinations of lacosamide (20 mg/kg) with gabapentin (50 and 100 mg/kg), and vehicle were administered i.p. 10 minutes before injection of formalin.
Lacosamide (10 and 20 mg/kg), morphine (2 and 4 mg/kg), combinations of lacosamide (10 and 20 mg/kg) with morphine (2 and 4 mg/kg), and vehicle were administered i.p. 10 minutes before injection of formalin.
Lacosamide (10 mg/kg), duloxetine (8 mg/kg), a combination of lacosamide (10 mg/kg) with duloxetine (8 mg/kg), and vehicle were administered i.p. 10 minutes before injection of formalin.
Lacosamide (10 and 20 mg/kg), memantine (4 and 8 mg/kg), combinations of lacosamide (10 and 20 mg/kg) with memantine (4 and 8 mg/kg), and vehicle were administered i.p. 10 minutes before injection of formalin.
Lacosamide (10 and 20 mg/kg), naproxen (8 and 16 mg/kg), combinations of lacosamide (10 and 20 mg/kg) with […] (8 and 16 mg/kg), and vehicle were administered i.p. 10 minutes before injection of formalin. Morphine (8 mg/kg) was included as a comparative treatment.

[2] = system: muscle pressure hyperalgesia induced by TNF; experiment: TNF-induced muscle pressure hyperalgesia (Randall-Selitto, withdrawal threshold to muscle pressure); type: in vivo, rat (Sprague Dawley)
Experimental: (§1) Adult male Sprague Dawley rats with a body weight of 250 g to 300 g were used (supplier: Charles River, Sulzfeld, Germany). Animals were group-housed (3 animals per cage) and maintained in a room with controlled temperature (21-22° C.) and a reversed light-dark cycle (12 h/12 h) with food and water available ad libitum. All experiments were approved by the Bavarian State animal experimentation committee and carried out in accordance with its regulations.
(§2) Recombinant rat tumor necrosis factor alpha (herein referred to as TNF) was obtained from R&D Systems, Minneapolis, Minn., U.S.A. TNF was diluted in 0.9% NaCl and used in a concentration of 1 μg in 50 μl. Injections were performed in short halothane narcosis with a 30 g needle bilaterally into the gastrocnemius or into the biceps brachii muscle. All rats were used to the behavioral tests before injections and baseline values were recorded over three test days.
Mechanical withdrawal thresholds to muscle pressure were measured with an analgesimeter (Ugo Basile, Comerio, Italy). The rat was allowed to crawl into a sock which helps the rat to relax. The hind limbs were positioned such that an increasing pressure could be applied onto the gastrocnemius muscle (maximum 250 g). The pressure needed to elicit withdrawal was recorded. Means of 3 trials for each hind limb were calculated (interstimulus interval of >30 sec). Only animals with a significant TNF effect were included for further analysis.
Rats were injected with TNF into the gastrocnemius muscle at 2 pm. Eighteen hours later, rats were tested for pressure hyperalgesia pre- and post-administration of the test drug. Rats were tested for pressure hyperalgesia 30 to 60 minutes after drug administration.
(§3) The rats, initially 10 per group, were treated with either 3, 10 or 30 mg/kg lacosamide, 2 mg/kg metamizol, 30 or 100 mg/kg pregabalin, 100 mg/kg gabapentin, or the NaCl vehicle, i.p. (intraperitoneally). Volume of i.p. injections was 0.5 ml. A pilot study was performed to confirm that i.m. (intramuscular) injection of 1 μg TNF into the gastrocnemius muscle was sufficient to induce pressure hyperalgesia.
(§4) Data are shown in graphs displaying means and standard errors of the means (SEM). Pre- and post-treatment data were compared using ANOVA (analysis of variance) and a Tukey post hoc test. Means of treatment groups were compared using a one-way ANOVA and Dunnett's post hoc test. Maximal possible effects (MPE) were calculated for all types of treatment.

[3] = system: biceps muscle grip strength after TNF-induced muscle pain; experiment: Biceps muscle grip strength after TNF-induced muscle pain; type: in vivo, rat (Sprague Dawley); conditions: 100 mg/kg i.p.
Experimental: as §1, §2
Grip strength of the forelimbs was tested with a digital grip force meter (DFIS series, Chatillon, Greensboro, NC, U.S.A.). The rat was positioned to grab the grid with the forelimbs and was gently pulled so that the grip strength could be recorded. Means of three trials were calculated. The effect of the TNF treatment was calculated for each animal separately and only animals with a significant TNF effect were included for further analysis.
Rats were injected with TNF into the biceps brachii muscle at 8 am. Six hours later, grip strength of the forelimbs was tested with a digital grip force meter. Test drug was administered, and grip strength was again tested after 30 to 60 minutes.
as §3, §4

[4] = system: monosodium iodoacetate-induced tactile allodynia; experiment: Monosodium iodoacetate-induced tactile allodynia (von Frey filaments); type: in vivo, rat (Wistar); conditions: 3 mg/kg s.c., 60 minutes before test
[5] = system: monosodium iodoacetate-induced mechanical hyperalgesia; experiment: Monosodium iodoacetate-induced mechanical hyperalgesia (Randall-Selitto paw pressure); type: in vivo, rat (Wistar); conditions: 3 mg/kg s.c.
[6] = Example 3, 100 mg/kg i.p. alone
[7] = Example 4, 2 and 4 mg/kg i.p. alone, did not reach statistical significance

Structure (SMILES): CNCC[C@H](Oc1cccc2ccccc12)c1cccs1 [Duloxetine]
- Licking time % change (a) compared with vehicle control ([1]; Example 5, 8 mg/kg i.p. alone): −26% (a)
- Licking time (seconds) mean ± SEM ([1]; Example 5, 8 mg/kg i.p. alone): 195.5 ± 45.0 NS (a) seconds
- No. of flinches % change (a) compared with vehicle control ([1]; Example 5, 8 mg/kg i.p. alone): −1% (a)
- No. of flinches mean ± SEM ([1]; Example 5, 8 mg/kg i.p. alone): 149.6 ± 27.3 NS (a)
- effects on the number of flinches and the time spent licking ([1]; Example 5, 8 mg/kg i.p. alone): had no clear effects

Structure (SMILES): NCC1(CC(=O)O)CCCCC1 [Gabapentin]
- MPE (maximal possible effect) on muscle pressure hyperalgesia, compared with vehicle ([2]; 100 mg/kg i.p.): significantly different from vehicle
- reversal of muscular mechanical hyperalgesia (withdrawal threshold to muscle pressure) ([2]; 100 mg/kg i.p., 18 h after TNF i.m., 30 to 60 minutes after drug): significant reversal
- full reversal of the muscle hyperalgesia ([2]; doses tested: pregabalin 30 and 100 mg/kg, gabapentin 100 mg/kg i.p.): Neither pregabalin nor gabapentin led to a full reversal
- MPE (maximal possible effect) on biceps muscle grip strength, compared with vehicle [3]: significantly different from vehicle
- reversal of TNF-induced reduction of grip strength ([3]; 6 h after TNF i.m., 30 to 60 minutes after drug): significant reversal; also recorded: improved grip strength
- Licking time % change (a) compared with vehicle control ([1]; Example 3, 50 mg/kg i.p. alone): −28% (a)
- Licking time (seconds) mean ± SEM ([1]; Example 3, 50 mg/kg i.p. alone): 161.0 ± 27.3 NS (a) seconds
- No. of flinches % change (a) compared with vehicle control ([1]; Example 3, 50 mg/kg i.p. alone): −24% (a)
- No. of flinches mean ± SEM ([1]; Example 3, 50 mg/kg i.p. alone): 97.4 ± 23.8 NS (a)
- decrease of the number of flinches as compared with vehicle controls ([1]; Example 3, 50 mg/kg i.p. alone): 24%
- decrease of the time spent licking as compared with vehicle controls ([1]; Example 3, 50 mg/kg i.p. alone): 28%
- Licking time % change (a) compared with vehicle control [1, 6]: −60% (a)
- Licking time (seconds) mean ± SEM [1, 6]: 90.0 ± 22.5 (a) seconds
- No. of flinches % change (a) compared with vehicle control [1, 6]: −31% (a)
- No. of flinches mean ± SEM [1, 6]: 88.1 ± 19.4 NS (a)
- decrease of the number of flinches as compared with vehicle controls [1, 6]: 31%
- decrease of the time spent licking as compared with vehicle controls [1, 6]: 60%

Structure (SMILES): CC12CC3CC(C)(C1)CC(N)(C3)C2 [Memantine]
- Licking time % change (a) compared with vehicle control ([1]; Example 6, 4 mg/kg i.p. alone): +25% (a)
- Licking time (seconds) mean ± SEM ([1]; Example 6, 4 mg/kg i.p. alone): 219.9 ± 21.8 NS (a) seconds
- No. of flinches % change (a) compared with vehicle control ([1]; Example 6, 4 mg/kg i.p. alone): −3% (a)
- No. of flinches mean ± SEM ([1]; Example 6, 4 mg/kg i.p. alone): 161.4 ± 26.3 NS (a)
- increase of the time spent licking as compared with vehicle controls ([1]; Example 6, 4 mg/kg i.p. alone): 25%
- Licking time % change (a) compared with vehicle control ([1]; Example 6, 8 mg/kg i.p. alone): +35% (a)
- Licking time (seconds) mean ± SEM ([1]; Example 6, 8 mg/kg i.p. alone): 237.3 ± 18.9 (a) seconds
- No. of flinches % change (a) compared with vehicle control ([1]; Example 6, 8 mg/kg i.p. alone): −20% (a)
- No. of flinches mean ± SEM ([1]; Example 6, 8 mg/kg i.p. alone): 132.3 ± 24.6 NS (a)
- increase of the time spent licking as compared with vehicle controls ([1]; Example 6, 8 mg/kg i.p. alone): 35%
- effect on the number of flinches as compared with vehicle controls ([1]; Example 6, 4 and 8 mg/kg i.p. alone): did not clearly affect

Structure (SMILES): CN1CC[C@]23c4c5ccc(O)c4O[C@H]2[C@@H](O)C=C[C@H]3[C@H]1C5 [Morphine]
- tactile allodynia of iodoacetate-treated rats (von Frey) ([4]; day 3): improved tactile allodynia
- tactile allodynia of iodoacetate-treated rats (von Frey) ([4]; day 7): improved tactile allodynia
- tactile allodynia of iodoacetate-treated rats (von Frey) ([4]; day 14): not on day 14
- paw pressure withdrawal threshold compared to iodoacetate/vehicle treated animals (mechanical hyperalgesia) ([5]; day 3): increase in paw pressure withdrawal threshold
- mechanical hyperalgesia (paw pressure withdrawal threshold) ([5]; day 7): reduced mechanical hyperalgesia
- Licking time % change (a) compared with vehicle control ([1]; Example 4, 2 mg/kg i.p. alone): −1% (a)
- Licking time (seconds) mean ± SEM ([1]; Example 4, 2 mg/kg i.p. alone): 289.3 ± 30.7 NS (a) seconds
- No. of flinches % change (a) compared with vehicle control ([1]; Example 4, 2 mg/kg i.p. alone): −7% (a)
- No. of flinches mean ± SEM ([1]; Example 4, 2 mg/kg i.p. alone): 139.5 ± 25.3 NS (a)
- Licking time % change (a) compared with vehicle control ([1]; Example 4, 4 mg/kg i.p. alone): −20% (a)
- Licking time (seconds) mean ± SEM ([1]; Example 4, 4 mg/kg i.p. alone): 234.9 ± 37.3 NS (a) seconds
- No. of flinches % change (a) compared with vehicle control ([1]; Example 4, 4 mg/kg i.p. alone): −37% (a)
- No. of flinches mean ± SEM ([1]; Example 4, 4 mg/kg i.p. alone): 94.3 ± 21.1 NS (a)
- effect on the number of flinches as compared with vehicle controls [1, 7]: dose-dependently decreased
- effect on the time spent licking as compared with vehicle controls [1, 7]: dose-dependently decreased
- Licking time % change (a) compared with vehicle control ([1]; Example 7, 8 mg/kg i.p. alone): −100% (a)
- Licking time (seconds) mean ± SEM ([1]; Example 7, 8 mg/kg i.p. alone): 0.0 ± 0.0 (a) seconds
- No. of flinches % change (a) compared with vehicle control ([1]; Example 7, 8 mg/kg i.p. alone): −100% (a)
- No. of flinches mean ± SEM ([1]; Example 7, 8 mg/kg i.p. alone): 0.2 ± 0.1 (a)
- effect on flinching and the time spent licking as compared with vehicle controls ([1]; Example 7, 8 mg/kg i.p. alone): eliminated flinching and the time spent licking
